# According to patent US9273057B2 (Bristol-Myers Squibb Company, priority 2012, dated 2016):
# Where a name gives a salt, the structure may show the parent alone.
# Target: CK2A1 (CK2α/β) (Homo sapiens, UniProt P68400)
# Assay: CK2 kinase assay, CK2A1 (CK2α/β)
# Assay type: biochemical
# Conditions: Table A; read-out: CK2A1 (CK2α/β) (IC50)
# Sequence of CK2A1 (CK2α/β) (P68400 whole entry, species assumed): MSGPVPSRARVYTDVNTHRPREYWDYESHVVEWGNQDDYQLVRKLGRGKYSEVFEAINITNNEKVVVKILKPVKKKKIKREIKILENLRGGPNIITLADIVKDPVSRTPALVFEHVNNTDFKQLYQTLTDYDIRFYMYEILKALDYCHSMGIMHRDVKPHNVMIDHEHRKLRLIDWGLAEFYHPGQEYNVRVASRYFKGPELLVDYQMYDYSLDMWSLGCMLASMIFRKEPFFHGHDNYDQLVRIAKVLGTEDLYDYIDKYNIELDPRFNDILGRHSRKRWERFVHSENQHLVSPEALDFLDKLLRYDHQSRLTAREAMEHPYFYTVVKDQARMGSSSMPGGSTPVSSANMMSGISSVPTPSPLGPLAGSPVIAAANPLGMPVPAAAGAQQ
# Sequence of CK2A1 (CK2α/β) (P67870 whole entry partner, species assumed): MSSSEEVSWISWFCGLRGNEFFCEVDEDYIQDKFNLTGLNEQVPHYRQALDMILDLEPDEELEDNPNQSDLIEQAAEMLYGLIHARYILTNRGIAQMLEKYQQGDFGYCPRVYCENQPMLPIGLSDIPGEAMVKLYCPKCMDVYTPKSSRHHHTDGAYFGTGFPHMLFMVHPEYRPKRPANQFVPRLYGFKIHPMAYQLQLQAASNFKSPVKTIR
row,IC50,Compound
1,1.91 nM,"CC1(C)CC(CN2CCN(c3cc(C#N)cc(Nc4nc(NC5CC5)c5ncc(C#N)n5n4)c3Cl)CC2)O1 (stereo not shown) [Example 527, 2-((2-chloro-5-cyano-3-(4-((4,4-dimethyloxetan-2-yl)methyl)piperazin-1-yl)phenyl)amino)-4-(cyclopropylamino)imidazo[2,1-f][1,2,4]triazine-7-carbonitrile]"
2,0.34 nM,"N#Cc1cc(NCCCO)c(Cl)c(Nc2nc(NC3CC3)c3ncc(C#N)n3n2)c1 [Example 617, 2-((2-chloro-5-cyano-3-((3-hydroxypropyl)amino)phenyl)amino)-4-(cyclopropylamino)imidazo[2,1-f][1,2,4]triazine-7-carbonitrile]"
3,6.02 nM,"CC(=O)NCC1(N2CCN(c3cc(C#N)cc(Nc4nc(NC5CC5)c5ncc(C#N)n5n4)c3Cl)CC2)COC1 [Example 540, N-((3-(4-(2-chloro-5-cyano-3-((7-cyano-4-(cyclopropylamino)imidazo[2,1-f][1,2,4]triazin-2-yl)amino)phenyl)piperazin-1-yl)oxetan-3-yl)methyl)acetamide]"
4,1.75 nM,"N#Cc1cc(Nc2nc(NC3CC3)c3ncc(C#N)n3n2)c(Cl)c(C2CCN(C3CCC3O)CC2)c1 (single isomer, unassigned) [Example 645, Cis and trans 2-((2-chloro-5-cyano-3-(1-(2-hydroxycyclobutyl)piperidin-4-yl)phenyl)amino)-4-(cyclopropylamino)imidazo[2,1-f][1,2,4]triazine-7-carbonitrile]"
5,2.5 nM,"N#Cc1cc(Nc2nc(NC3CC3)c3ncc(C#N)n3n2)c(Cl)c(N2CCN(C3CN(CC(O)CF)C3)CC2)c1 (stereo not shown) [Example 614, 2-[(2-chloro-5-cyano-3-{4-[1-(3-fluoro-2-hydroxypropyl)azetidin-3-yl]piperazin-1-yl}phenyl)amino]-4-(cyclopropylamino)imidazo [2,1-f][1,2,4]triazine-7-carbonitrile]"
6,1.48 nM,"CN1CCOC(c2cc(C#N)cc(Nc3nc(NC4CC4)c4ncc(C#N)n4n3)c2Cl)C1 (racemic) [Example 694, (+/−)-2-((2-chloro-5-cyano-3-(4-methylmorpholin-2-yl)phenyl)amino)-4-(cyclopropylamino)imidazo[2,1-f][1,2,4]triazine-7-carbonitrile]"
7,2.08 nM,"CC1(N2CCN(c3cc(OC(F)F)cc(Nc4nc(NC5CC5)c5ncc(C#N)n5n4)c3Cl)CC2)COC1 [Example 561, 2-((2-chloro-5-(difluoromethoxy)-3-(4-(3-methyloxetan-3-yl)piperazin-1-yl)phenyl)amino)-4-(cyclopropylamino)imidazo[2,1-f][1,2,4]triazine-7-carbonitrile]"
8,1.12 nM,"COC(=O)N[C@H]1CCN(c2cc(C#N)cc(Nc3nc(NC4CC4)c4ncc(C#N)n4n3)c2Cl)C[C@@H]1NC1COC1 (single isomer, unassigned) [Example 744]"
9,1.68 nM,"N#Cc1cc(Nc2nc(NC3CC3)c3ncc(C#N)n3n2)c(Cl)c([C@H]2CCC[C@@H](N3CC(F)C3)C2)c1 (single isomer, unassigned) [Example 729]"

# Continued, compound first:
row,Compound,IC50
1,"CC(C)(O)C1CCN(C2CN(c3cc(C(F)F)cc(Nc4nc(NC5CC5)c5ncc(C#N)n5n4)c3Cl)C2)CC1 [Example 259, 2-((2-chloro-5-(difluoromethyl)-3-(3-(4-(1-hydroxy-1-methylethyl)-1-piperidinyl)-1-azetidinyl)phenyl)amino)-4-(cyclopropylamino)imidazo[2,1-f][1,2,4]triazine-7-carbonitrile]",1.29 nM
2,"CCNc1nc(Nc2cc(C#N)cc(N3CC[C@@H](NC(=O)OC)[C@H](OC(=O)[C@@H](C)OP(=O)(O)O)C3)c2Cl)nn2c(C#N)cnc12 [Example 342, (R)-(3R,4R)-1-(2-chloro-5-cyano-3-((7-cyano-4-(ethylamino)imidazo[2,1-f][1,2,4]triazin-2-yl)amino)phenyl)-4-((methoxycarbonyl)amino)piperidin-3-yl 2-(phosphonooxy)propanoate]",0.37 nM
3,"N#Cc1cc(Nc2nc(NC3CC3)c3ncc(C#N)n3n2)c(Cl)c(N2C[C@@H](O)[C@H](N3CCOCC3)C2)c1 [Example 307, 2-((2-chloro-5-cyano-3-((3R,4R)-3-hydroxy-4-(4-morpholinyl)-1-pyrrolidinyl)phenyl)amino)-4-(cyclopropylamino)imidazo[2,1-f][1,2,4]triazine-7-carbonitrile]",0.88 nM
4,"COC(=O)Nc1cc(Nc2nc(NC3CC3)c3ncc(C#N)n3n2)c(Cl)c(N2CC(N3CCOCC3)C2)c1 [Example 201, methyl (4-chloro-3-((7-cyano-4-(cyclopropylamino)imidazo[2,1-f][1,2,4]triazin-2-yl)amino)-5-(3-(4-morpholinyl)-1-azetidinyl)phenyl)carbamate]",2.95 nM
5,"CN1CCC(c2cc(C#N)cc(Nc3nc(NC4CC4)c4ncc(C#N)n4n3)c2Cl)CC1 [Example 209, 2-(2-chloro-5-cyano-3-(1-methylpiperidin-4-yl)phenylamino)-4-(cyclopropylamino)imidazo[1,2,f][1,2,4]triazine-7-carbonitrile]",0.56 nM
6,"CO[C@@H]1CN(c2cc(C#N)cc(Nc3nc(NC4CC4)c4ncc(C#N)n4n3)c2Cl)C[C@@H]1NS(C)(=O)=O [Example 289, N-((3S,4R)-1-(2-chloro-5-cyano-3-((7-cyano-4-(cyclopropylamino)imidazo[2,1-f][1,2,4]triazin-2-yl)amino)phenyl)-4-methoxy-3-pyrrolidinyl)methanesulfonamide]",0.59 nM
7,"C=CC1(N2CCC(c3cc(C#N)cc(Nc4nc(NC5CC5)c5ncc(C#N)n5n4)c3Cl)CC2)COC1 [Example 379, 2-((2-chloro-5-cyano-3-(1-(3-vinyloxetan-3-yl)piperidin-4-yl)phenyl)amino)-4-(cyclopropylamino)imidazo[2,1-f][1,2,4]triazine-7-carbonitrile]",2.61 nM
8,"CC1(N2CCOCC2)CCN(c2cc(C#N)cc(Nc3nc(NC4CC4)c4ncc(C#N)n4n3)c2Cl)CC1 [Example 304, 2-((2-chloro-5-cyano-3-(4-methyl-4-morpholinopiperidin-1-yl)phenyl)amino)-4-(cyclopropylamino)imidazo[2,1-f][1,2,4]triazine-7-carbonitrile, HCl]",0.8 nM
9,"N#Cc1cc(Nc2nc(NC3CC3)c3ncc(C#N)n3n2)c(Cl)c(N2CCN3CCOC[C@H]3C2)c1 [Example 308, (R)-2-((2-chloro-5-cyano-3-(hexahydropyrazino[2,1-c][1,4]oxazin-8(1H)-yl)phenyl)amino)-4-(cyclopropylamino)imidazo[2,1-f][1,2,4]triazine-7-carbonitrile]",1.67 nM
10,"CCNc1nc(Nc2cc(C#N)cc(C3CCN(CC(C)(C)O)CC3)c2Cl)nn2c(C#N)cnc12 [Example 353, 2-((2-chloro-5-cyano-3-(1-(2-hydroxy-2-methylpropyl)-4-piperidinyl)phenyl)amino)-4-(ethylamino)imidazo[2,1-f][1,2,4]triazine-7-carbonitrile]",0.87 nM
11,"N#Cc1cnc2c(NC3CC3)nc(Nc3cc(C(F)F)cc(N4CCOCC4)c3Cl)nn12 [Example 275, 2-((2-chloro-5-(difluoromethyl)-3-(4-morpholinyl)phenyl)amino)-4-(cyclopropylamino)imidazo[2,1-f][1,2,4]triazine-7-carbonitrile]",3.36 nM
12,"N#Cc1cc(Nc2nc(NC3CC3)c3ncc(C#N)n3n2)c(Cl)c(N2CCC(C3COC3)CC2)c1 [Example 525, 2-((2-chloro-5-cyano-3-(4-(oxetan-3-yl)piperidin-1-yl)phenyl)amino)-4-(cyclopropylamino)imidazo[2,1-f][1,2,4]triazine-7-carbonitrile]",3.2 nM
13,"N#Cc1cc(Nc2nc(NC3CC3)c3ncc(C#N)n3n2)c(Cl)c(N2CCN(C(=O)C3CCCO3)CC2)c1 (racemic) [Example 84, (+/−) 2-((2-chloro-5-cyano-3-(4-(tetrahydro-2-furanylcarbonyl)-1-piperazinyl)phenyl)amino)-4-(cyclopropylamino) imidazo[2,1-f][1,2,4] triazine-7-carbonitrile]",0.5 nM
14,"CC(C)(O)CN1CCC2CN(c3cc(C#N)cc(Nc4nc(NC5CC5)c5ncc(C#N)n5n4)c3Cl)CCC21 (stereo not shown) [Example 450, 2-((2-chloro-5-cyano-3-(1-(2-hydroxy-2-methylpropyl)hexahydro-1H-pyrrolo[3,2-c]pyridin-5(6H)-yl)phenyl)amino)-4-(cyclopropylamino)imidazo[2,1-f][1,2,4]triazine-7-carbonitrile]",1.5 nM
15,"COC(=O)N[C@H]1C[C@@H](O)CN(c2cc(C#N)cc(Nc3nc(NC4CC4)c4ncc(C#N)n4n3)c2Cl)C1 [Example 295, methyl ((3S,5R)-1-(2-chloro-5-cyano-3-((7-cyano-4-(cyclopropylamino)imidazo[2,1-f][1,2,4]triazin-2-yl)amino)phenyl)-5-hydroxy-3-piperidinyl)carbamate]",1.21 nM
16,"N#CCCN(Cc1cc(C#N)cc(Nc2nc(NC3CC3)c3ncc(C#N)n3n2)c1Cl)CC1CCCO1 (stereo not shown) [Example 474, 2-[(2-chloro-5-cyano-3-{[(2-cyanoethyl)(oxolan-2-ylmethyl)amino]methyl}phenyl)amino]-4-(cyclopropylamino)imidazo[2,1-f][1,2,4]triazine-7-carbonitrile]",1.55 nM
17,"N#Cc1cc(Nc2nc(NC3CC3)c3ncc(C#N)n3n2)c(Cl)c(C2CCN(C3CC4(COC4)C3)CC2)c1 [Example 222, 2-((2-chloro-5-cyano-3-(1-(2-oxaspiro[3.3]hept-6-yl)-4-piperidinyl)phenyl)amino)-4-(cyclopropylamino)imidazo[2,1-f][1,2,4]triazine-7-carbonitrile]",1.17 nM
18,"CC(C)(O)C1CCN(c2cc(C#N)cc(Nc3nc(NC4CC4)c4ncc(C#N)n4n3)c2Cl)CC1 [Example 16, 2-((2-chloro-5-cyano-3-(4-(1-hydroxy-1-methylethyl)-1-piperidinyl)phenyl)amino)-4-(cyclopropylamino)imidazo [2,1-f][1,2,4]triazine-7-carbonitrile]",1 nM
19,"CC(C)(O)[C@H]1CN(c2cc(C#N)cc(Nc3nc(NC4CC4)c4ncc(C#N)n4n3)c2Cl)CCO1 [Example 38, 2-((2-chloro-5-cyano-3-((2R)-2-(1-hydroxy-1-methylethyl)-4-morpholinyl)phenyl)amino)-4-(cyclopropylamino)imidazo [2,1-f][1,2,4]triazine-7-carbonitrile]",1.2 nM
